{
  "source": "patent US20040242679A1",
  "about": "“Methods and compositions for potentiating cancer chemotherapeutic agents” (priority 2002, published 2004)",
  "key": {"[1]": {"tested_on": "SK-Hep-1, a liver adenocarcinoma (hepatoma)", "experiment": "Cell Proliferation ELISA, BudR (colorimetric), hepatoma cells", "assay_type": "cell-based, human", "conditions": "for suppression of hepatoma proliferation, adjuvant combined with ADR: adjuvant 0.5 mM AA equivalents, one application of ADR, two of adjuvant, prominent at ADR 0.003-0.03 micromolar; for inhibition of hepatoma proliferation, single agent: ADR 0.02-0.33 micromoles, furanone 0.001-0.01% compared at same absolute concentration", "text": "(§1) Calcium ascorbate (CA), calcium threonate (CT), 4-hydroxy-5-methyl-3(2H)-furanone (FR) and Ester-C (EC) are obtained from Inter-Cal Corporation, Prescott, Ariz., USA. Tissue culture grade Ascorbic acid (AA) is from Sigma Chemical Company, St. Louis, Mo., USA. The composition of calcium ascorbate (calcium di-(L-ascorbate) dihydrate) is made by sequentially dissolving the salt in sterile water to obtain master-stock solutions of equal strength (1% w/v). Aqueous solution of calcium ascorbate plus calcium threonate plus 4-hydroxy-5-methyl-3(2H)-furanone (CA/CT/FR) is prepared at ratio of 85/7.5/7.5. For comparative analysis, stock solutions containing identical ascorbic acid (AA) equivalents are used. All master stocks are stored at room temperature during the course of these procedures. From these, 10× strength working stocks are prepared by serial dilution on the day of use and are applied to cells in microtiter plates as described below.\nAdriamycin (doxorubicin) is obtained from Sigma Chemical Company (St. Louis, Mo.). Stock solutions are made by dissolving adriamycin (ADR) in sterile water and DTIC in water or dilute acetic acid solution (0.01N). Stocks are stored frozen at −10 C. and thawed prior to use. Serial dilutions are made in sterile water to obtain 10× strength solutions and one tenth volume of this is applied to cells at the time of treatment.\nTarget human tumor-derived lines consist of SK-Hep-1, a liver adenocarcinoma ([…]) and Malme-3M, a malignant melanoma. All seed cultures are obtained from ATCC, Manassas, Va., USA and are propagated/maintained in serum-containing growth medium in a humidified incubator of 5% CO2/95% air. SK-Hep-1 cells are grown in Eagle's minimum essential medium (EMEM) in Earle's salts plus non-essential amino acids supplemented with 10% FBS plus antibiotics and Malme-3M cells are cultured in McCoy's medium supplemented with 15% fetal bovine serum (FBS) plus antibiotics.\nFor treatment, exponentially growing cells are seeded at a density of 1×10^4 cells per well of 96-well microtiter plate in 0.1-0.2 ml of growth medium. After overnight cell attachment at 37 C., duplicate wells are exposed to various treatments by direct application of one-tenth volume of 10× strength solution. For treatments involving chemotherapeutic agent, one-tenth volume of serial dilutions of adriamycin (0.0006-3.0 micromolar) are applied to wells followed by application of ascorbate-containing composition (adjuvant) or sterile water (control). The adjuvant treatment is repeated every other day or on the third day (as applicable) without change of growth medium. Untreated controls receive an equivalent amount of sterile water. After 2-3 treatments with adjuvant, cells are labeled with BudR as described below. (In some experiments, wells are refed an equal volume of growth medium prior to additional of BudR. This gives a higher amount of BrdU incorporation into DNA relative to no refluiding).\nFor DNA labeling, the following procedure is adapted and modified from the Cell Proliferation ELISA, BudR (Colorimetric) assay of Roche Diagnostics, Indianapolis, Ind., USA: Each treated well is exposed to one-tenth volume of 10× BrdU-containing medium and reincubated at 37 C. overnight (15-20 hrs.). One set of control wells is exposed to medium only (no BudR) to obtain an absorbance-control (substrate only) blank for the assay. After the labeling period, the culture medium is removed and the cells are fixed and DNA denatured in one step by adding FixDenat (30 min at RT). Then, FixDenat is removed, the anti-BrdU-peroxidase reagent is added and incubation continues for 90 min at RT. After removal of the latter, the plate is washed 3 times, followed by addition of substrate solution. The plate is kept at RT until color development became sufficient for photometric detection ([…]). At this time, reaction is stopped by addition to each well of 25 microliter 1M sulfuric acid followed by mixing for approximately 1 min on the shaker. […]"}, "[2]": {"tested_on": "malignant melanoma (Malme-3M)", "experiment": "Cell death detection ELISA, melanoma cells", "assay_type": "cell-based, human", "protocol": "(§2) Four human tumor cell types, shown previously to be sensitive to combinations of mineral ascorbate plus metabolites are evaluated. These lines consist of: (i) a liver hepatoma (SK-Hep-1), (ii) a malignant melanoma (Malme-3M), (iii) a neurobastoma (SK-N-MC) and (iv) a colon carcinoma (T84). Non-malignant cell types consist of: normal human liver (WRL 68), normal skin fibroblasts (Malme-3) and normal retinal epithelial cells (ARPE-19). The tumor-derived lines, normal liver and skin fibroblasts are obtained from the American Type Culture Collection (ATCC). The ARPE-19 cell line is a gift from a colleague at California Institute for Medical Research. Cells are grown and maintained in culture, in a humidified incubator of 5% CO2/95% air. […]\n(§3) Subconfluent monolayers of 1-2 old, adherent cultures (seeded at a density of 10,000 cells per well in a 96-well plate) are exposed to 0.1 volume of serial dilutions (10× concentrated solutions) of the furanone and the plate is returned to the incubator. […] The supernatant (cytoplasmic lysate) is saved and in aliquot (20 microliters) was assayed for the presence of histone-DNA complexes (nucleosomal fragments) by photometric detection (absorbance at 405-410 nm) using cell death detection Elisa assay (Roche Diagnostics)."}, "[3]": {"tested_on": "Malme-3M, a malignant melanoma", "experiment": "Cell Proliferation ELISA, BudR (colorimetric), melanoma cells", "assay_type": "cell-based, human", "conditions": "furanone at 0.1% as printed; FIG. 21", "text": "as §1, with “below. […]” for “below.”\nFor DNA labeling, the following procedure is adapted and modified from the Cell Proliferation ELISA, BudR (Colorimetric) assay of Roche Diagnostics, Indianapolis, Ind., USA: Each treated well is exposed to one-tenth volume of 10× BrdU-containing medium and reincubated at 37 C. overnight (15-20 hrs.). One set of control wells is exposed to medium only (no BudR) to obtain an absorbance-control (substrate only) blank for the assay. […]"}, "neurobastoma (SK-N-MC)": {"tested_on": "neurobastoma (SK-N-MC)", "experiment": "Cell death detection ELISA, neuroblastoma cells", "assay_type": "cell-based, human", "conditions": "up to max of 0.001% furanone", "protocol": "as §2, §3"}, "[4]": {"tested_on": "liver hepatoma (SK-Hep-1)", "experiment": "Cell death detection ELISA, hepatoma cells", "assay_type": "cell-based, human", "protocol": "as §2, §3"}, "[5]": {"tested_on": "normal retinal epithelial cells (ARPE-19)", "experiment": "Cell death detection ELISA, normal retinal epithelial cells", "assay_type": "cell-based, human", "conditions": "up to max of 0.003% furanone", "protocol": "as §2, §3"}, "colon carcinoma (T84)": {"tested_on": "colon carcinoma (T84)", "experiment": "Cell death detection ELISA, colon carcinoma cells", "assay_type": "cell-based, human", "conditions": "up to a max. of 0.01% furanone", "protocol": "as §2, §3"}, "[6]": {"tested_on": "normal skin fibroblasts (Malme-3)", "experiment": "Cell death detection ELISA, normal skin fibroblasts", "assay_type": "cell-based, human", "conditions": "two furanone preparations", "protocol": "as §2, §3"}, "[7]": {"tested_on": "normal human liver (WRL 68)", "experiment": "Cell death detection ELISA (histone-DNA complexes), normal liver cells", "assay_type": "cell-based", "conditions": "0.01-0.0001% furanone, three sequential treatments", "protocol": "as §2, §3"}},
  "data": [
    {"compound": "O=C1O[C@H]([C@@H](O)CO)C(O)=C1O", "note": "[AA, Ascorbic acid, reference compound]", "values": [
      {"measurement": "suppression of hepatoma proliferation, adjuvant combined with ADR", "setting": "[1]", "value": "greater suppression of hepatoma proliferation than ADR alone"}
    ]},
    {"compound": "COc1cccc2c1C(=O)c1c(O)c3c(c(O)c1C2=O)C[C@@](O)(C(=O)CO)C[C@@H]3O[C@H]1C[C@H](N)[C@H](O)[C@H](C)O1", "note": "[ADR, Adriamycin (doxorubicin), reference compound]", "values": [
      {"measurement": "inhibition of hepatoma proliferation, single agent", "setting": "[1]", "value": "dose-dependent inhibition of hepatoma proliferation"}
    ]},
    {"compound": "CC1=C(O)C(=O)CO1", "note": "[furanone, 4-hydroxy-5-methyl-3(2H)-furanone]", "values": [
      {"measurement": "minimal concentration required to produce 2-fold change in apoptosis rate", "setting": "[2]", "value": 0.003, "unit": "%"},
      {"measurement": "enhancement of the inhibitory effect of ADR in melanoma cells", "setting": "[3]", "value": "consistently enhances the inhibitory effect of ADR at all concentrations of the chemotherapeutic drug"},
      {"measurement": "change in death rates", "setting": "neurobastoma (SK-N-MC)", "value": "does not elicit significant changes in death rates"},
      {"measurement": "cell death in hepatoma cells", "setting": "[4]; furanone 0.001-0.01% (0.08-0.88 mM), three sequential treatments", "value": "sharp rises in cell death"},
      {"measurement": "minimal concentration required to produce 2-fold change in apoptosis rate", "setting": "[4]; hepatoma cells", "value": "< 0.001", "unit": "%"},
      {"measurement": "change in death rates", "setting": "[5]", "value": "does not elicit significant changes in death rates"},
      {"measurement": "reduction in cellular DNA synthesis compared to untreated control", "setting": "[1]; 0.01% furanone alone", "value": "~4.6", "unit": "fold"},
      {"measurement": "enhancement of the inhibitory effect of ADR", "setting": "[1]; ADR 0.007 micromolar, adjuvant 0.01%", "value": 7, "unit": "fold"},
      {"measurement": "inhibition of hepatoma proliferation, single agent", "setting": "[1]", "value": "more effective in inhibiting hepatoma proliferation than either the triple ascorbate/metabolite mix or Ester-C®"},
      {"measurement": "minimal dose of furanone required to produce 2-fold enhancement of ADR inhibition", "setting": "[1]; two independent experiments", "value": "~0.0016", "unit": "%"},
      {"measurement": "change in rate of cellular apoptosis over untreated control", "setting": "colon carcinoma (T84)", "value": "< 0.5", "unit": "log"},
      {"measurement": "increase in apoptosis", "setting": "[6]", "value": "< 0.3", "unit": "log"},
      {"measurement": "maximal change in cell-death rate", "setting": "[7]", "value": "less than 0.3 logs"}
    ]},
    {"compound": "calcium di-(L-ascorbate) dihydrate", "values": [
      {"measurement": "improvement of anti-proliferation activity of ADR", "setting": "[1]; 0.033% adjuvant, low doses of ADR", "value": "consistently improve the anti-proliferation activity of low doses of ADR"},
      {"measurement": "suppression of hepatoma proliferation, adjuvant combined with ADR", "setting": "[1]; dihydrate", "value": "greater suppression of hepatoma proliferation than ADR alone"},
      {"measurement": "suppression of hepatoma proliferation, adjuvant combined with ADR", "setting": "[1]; listed as Calcium ascorbate, dihydrate", "value": "more effective than ascorbic acid"}
    ]}
  ]
}
